Experimental data published in PubChem BioAssay (NCI).
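Briefly, cells in 96-well plates were exposed to five compound concentrations for 48 h, and endpoints were estimated by linear interpolation. Abbreviation: GI50, concentration required for 50% inhibition of growth. The concentration for full growth arrest is given as TGI.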

Key:
Test in all cases: NCI-60 cell line screen, 48 h
BT-549 breast = tested on: BT-549 breast
HCT-116 colon = tested on: HCT-116 colon
K-562 leukemia = tested on: K-562 leukemia
NCI-H522 lung = tested on: NCI-H522 lung
OVCAR-8 ovarian = tested on: OVCAR-8 ovarian
SF-295 CNS = tested on: SF-295 CNS
SK-OV-3 ovarian = tested on: SK-OV-3 ovarian
SNB-19 CNS = tested on: SNB-19 CNS
T-47D breast = tested on: T-47D breast
A498 renal = tested on: A498 renal

SMILES: C=C1C(O)C2C(=C(C)C13CC3)C(=O)C(C)(C)C2OC (configuration not stated)
- GI50 (BT-549 breast): > 100 µM
- TGI (BT-549 breast): > 100 µM
- GI50 (HCT-116 colon): > 100 µM
- TGI (HCT-116 colon): > 100 µM
- GI50 (K-562 leukemia): 42.9 µM
- TGI (K-562 leukemia): > 100 µM
- GI50 (NCI-H522 lung): 75.4 µM
- TGI (NCI-H522 lung): > 100 µM
- GI50 (OVCAR-8 ovarian): 71.9 µM
- TGI (OVCAR-8 ovarian): > 100 µM
- GI50 (SF-295 CNS): > 100 µM
- TGI (SF-295 CNS): > 100 µM
- GI50 (SK-OV-3 ovarian): > 100 µM
- TGI (SK-OV-3 ovarian): > 100 µM
- GI50 (SNB-19 CNS): > 100 µM
- TGI (SNB-19 CNS): > 100 µM
- GI50 (T-47D breast): 23.1 µM
- TGI (T-47D breast): 67.8 µM

SMILES: O=C1c2ccccc2C(=O)N1C/C=N/NS(=O)(=O)c1ccc(Br)cc1
- TGI (A498 renal): > 100 µM
- TGI (HCT-116 colon): > 100 µM
- TGI (K-562 leukemia): > 100 µM
- TGI (NCI-H522 lung): > 100 µM
- TGI (OVCAR-8 ovarian): > 100 µM
- TGI (SF-295 CNS): > 100 µM
- TGI (SK-OV-3 ovarian): > 100 µM
- TGI (SNB-19 CNS): > 100 µM

SMILES: C[Si](C)(C)CN1C(=O)c2ccccc2C1(O)c1ccccc1 (configuration not stated)
- TGI (A498 renal): > 100 µM
- TGI (HCT-116 colon): > 100 µM
- TGI (K-562 leukemia): > 100 µM
- TGI (NCI-H522 lung): > 100 µM
- TGI (OVCAR-8 ovarian): > 100 µM
- TGI (SF-295 CNS): > 100 µM
- TGI (SNB-19 CNS): > 100 µM

SMILES: CC1CCC(C(C)(C)c2ccccc2)C(=O)C1 (configuration not stated)
- TGI (A498 renal): > 100 µM
- TGI (HCT-116 colon): > 100 µM
- TGI (K-562 leukemia): > 100 µM
- TGI (OVCAR-8 ovarian): > 100 µM
- TGI (SF-295 CNS): > 100 µM
- TGI (SK-OV-3 ovarian): > 100 µM
- TGI (SNB-19 CNS): > 100 µM

SMILES: O=C1c2ccc3c4ccccc4n(-c4ccccc4)c3c2C(=O)N1c1ccc(Cl)cc1
- TGI (A498 renal): > 100 µM
- TGI (HCT-116 colon): > 100 µM
- TGI (K-562 leukemia): > 100 µM
- TGI (NCI-H522 lung): > 100 µM
- TGI (OVCAR-8 ovarian): > 100 µM
- TGI (SF-295 CNS): > 100 µM
- TGI (SK-OV-3 ovarian): > 100 µM
- TGI (SNB-19 CNS): > 100 µM

SMILES: COc1ccc(/C=N/N=C(\N)NO)c(OC)c1C
- TGI (A498 renal): 87.6 µM
- TGI (HCT-116 colon): > 100 µM
- TGI (K-562 leukemia): > 100 µM
- TGI (NCI-H522 lung): 26.4 µM
- TGI (OVCAR-8 ovarian): > 100 µM
- TGI (SF-295 CNS): > 100 µM
- TGI (SK-OV-3 ovarian): > 100 µM
- TGI (SNB-19 CNS): > 100 µM

SMILES: O=C1/C(=C/N2N=C(c3ccc4ccccc4c3)CC2c2ccccc2O)SC(=S)N1c1cccnc1 (configuration not stated)
- GI50 (A498 renal): 1.38 µM
- TGI (A498 renal): 5.83 µM
- GI50 (HCT-116 colon): 0.33 µM
- TGI (HCT-116 colon): > 100 µM
- GI50 (K-562 leukemia): 0.341 µM
- TGI (K-562 leukemia): > 100 µM
- GI50 (OVCAR-8 ovarian): 2.36 µM
- TGI (OVCAR-8 ovarian): > 100 µM
- GI50 (SF-295 CNS): 2.63 µM
- TGI (SF-295 CNS): > 100 µM
- GI50 (SK-OV-3 ovarian): 5.95 µM
- TGI (SK-OV-3 ovarian): > 100 µM
- GI50 (SNB-19 CNS): 3.85 µM
- TGI (SNB-19 CNS): > 100 µM
- GI50 (T-47D breast): 3.8 µM
- TGI (T-47D breast): > 100 µM

SMILES: CN(C)CCNc1nc2ccccc2c2c(=O)c3cc(F)ccc3sc12
- GI50 (BT-549 breast): 3.52 µM
- TGI (BT-549 breast): > 100 µM
- GI50 (HCT-116 colon): 1.58 µM
- TGI (HCT-116 colon): 3.08 µM
- GI50 (K-562 leukemia): 2 µM
- TGI (K-562 leukemia): 4.84 µM
- GI50 (NCI-H522 lung): 1.86 µM
- TGI (NCI-H522 lung): 3.79 µM
- GI50 (SF-295 CNS): 1.76 µM
- TGI (SF-295 CNS): 3.22 µM

SMILES: COc1ccc(-c2cc(-c3ccc(Nc4ccnc5cc(Cl)ccc45)cc3)nc(N3CCOCC3)n2)cc1
- GI50 (A498 renal): 27.5 µM
- TGI (A498 renal): 86.7 µM
- GI50 (BT-549 breast): 2.73 µM
- TGI (BT-549 breast): > 100 µM
- GI50 (HCT-116 colon): 2.96 µM
- TGI (HCT-116 colon): > 100 µM
- GI50 (K-562 leukemia): 6.18 µM
- TGI (K-562 leukemia): > 100 µM
- GI50 (OVCAR-8 ovarian): 4.43 µM
- TGI (OVCAR-8 ovarian): > 100 µM
- GI50 (SK-OV-3 ovarian): 34.8 µM
- TGI (SK-OV-3 ovarian): > 100 µM
- GI50 (SNB-19 CNS): 3.86 µM
- TGI (SNB-19 CNS): > 100 µM

SMILES: C1COCCSC2=C(SCCO1)SC(=C1SC3=C(SCCOCCOCCS3)S1)S2
- TGI (A498 renal): > 100 µM
- TGI (HCT-116 colon): > 100 µM
- TGI (K-562 leukemia): > 100 µM
- TGI (NCI-H522 lung): > 100 µM
- TGI (OVCAR-8 ovarian): > 100 µM
- TGI (SF-295 CNS): > 100 µM
- TGI (SK-OV-3 ovarian): > 100 µM
- TGI (SNB-19 CNS): > 100 µM

SMILES: COc1cc(-c2nnc3n2NC=C(C(=O)O)S3)cc(OC)c1OC
- TGI (A498 renal): > 100 µM
- TGI (HCT-116 colon): > 68.8 µM
- TGI (K-562 leukemia): > 63 µM
- TGI (NCI-H522 lung): > 100 µM
- TGI (OVCAR-8 ovarian): > 100 µM
- TGI (SF-295 CNS): > 100 µM
- TGI (SK-OV-3 ovarian): > 100 µM
- TGI (SNB-19 CNS): > 100 µM
